22 molecules from patent US10689354B2, “Aminoazole derivative” (Teijin Pharma Limited, priority 2015, dated 2020) can be followed below.

The target in assay [1] is T1, androgen receptor (AR-LBD) (Rattus norvegicus, UniProt P15207).
T1 construct: 5 μL of 2×AR-LBD/Fluoromone AL Red Complex contained in the kit; purchased Invitrogen
T1 sequence (P15207 651-882 limits assumed): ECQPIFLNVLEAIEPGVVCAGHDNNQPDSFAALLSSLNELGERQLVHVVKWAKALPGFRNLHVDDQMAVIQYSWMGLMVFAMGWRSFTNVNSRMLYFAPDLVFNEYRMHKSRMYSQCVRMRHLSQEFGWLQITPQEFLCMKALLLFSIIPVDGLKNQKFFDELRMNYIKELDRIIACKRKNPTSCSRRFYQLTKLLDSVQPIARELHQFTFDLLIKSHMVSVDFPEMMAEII
The experiment in a line: Evaluation of androgen receptor affinity (PolarScreen Androgen Receptor Competitor Assay Kit, Red; fluorescence polarization). Particulars: 22° C. for 5 hours, relative to binding rate of 1 μM DHT, read-out: AR affinity (pEC50) (converted). The method in brief: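 Fluorescence polarization read-out after 5 h at 22° C of compound with a red-fluorophore-labelled AR-LBD complex. Displacement is scaled against 1 μM DHT, and the log reciprocal of the concentration reaching half that effect gives pEC50 via four-parameter curve fitting.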

Assay [2] has as its target T2, human androgen receptor (Homo sapiens, UniProt P10275).
T2 construct: expressed in transfected cells; host or cells: HEK293
T2 sequence (P10275 1-920): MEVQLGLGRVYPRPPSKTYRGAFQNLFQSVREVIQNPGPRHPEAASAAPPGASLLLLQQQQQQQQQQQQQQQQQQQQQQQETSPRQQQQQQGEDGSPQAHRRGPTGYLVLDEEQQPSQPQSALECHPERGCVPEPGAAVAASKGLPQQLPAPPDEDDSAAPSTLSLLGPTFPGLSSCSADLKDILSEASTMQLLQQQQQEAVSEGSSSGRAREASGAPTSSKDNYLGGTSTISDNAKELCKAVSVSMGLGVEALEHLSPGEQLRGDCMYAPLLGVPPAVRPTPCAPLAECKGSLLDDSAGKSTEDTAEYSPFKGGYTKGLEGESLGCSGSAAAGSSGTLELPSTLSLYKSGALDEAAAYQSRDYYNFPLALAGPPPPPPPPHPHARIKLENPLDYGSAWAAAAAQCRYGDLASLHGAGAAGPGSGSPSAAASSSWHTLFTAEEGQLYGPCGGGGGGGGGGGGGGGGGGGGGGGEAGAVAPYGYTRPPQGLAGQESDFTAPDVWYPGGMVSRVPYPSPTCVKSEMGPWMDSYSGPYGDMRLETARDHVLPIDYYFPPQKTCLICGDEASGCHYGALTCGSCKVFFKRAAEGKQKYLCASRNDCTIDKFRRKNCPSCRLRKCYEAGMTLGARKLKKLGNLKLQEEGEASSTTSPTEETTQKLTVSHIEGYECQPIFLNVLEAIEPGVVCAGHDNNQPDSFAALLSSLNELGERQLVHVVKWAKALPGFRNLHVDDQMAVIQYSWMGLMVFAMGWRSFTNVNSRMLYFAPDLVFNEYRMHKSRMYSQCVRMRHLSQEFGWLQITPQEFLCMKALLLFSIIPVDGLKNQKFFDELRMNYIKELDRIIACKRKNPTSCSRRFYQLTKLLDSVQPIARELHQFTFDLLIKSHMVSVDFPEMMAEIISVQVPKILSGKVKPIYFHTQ
The experiment in a line: Reporter assay of an androgen receptor responsive sequence (luciferase, transiently transfected HEK293 cells). The class given is cell-based. Particulars: 24 hours incubation, relative to activity of 100 nM DHT, read-out: AR transcriptive activity (pEC50) (converted). The method in brief:
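HEK293 cells transiently transfected for 3 h with ARE-firefly luciferase, full-length human AR and TK-Renilla plasmids, then exposed to compound for 24 h at 37 °C in 5% charcoal-treated FBS/DMEM. Dual-Glo luminescence read; pEC50 from 4-parameter fit relative to 100 nM DHT.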
(Reporter assays use an easily measured gene product as a stand-in for the process of interest.)

Structures are written as SMILES.

In the case of `Cc1oc(N(Cc2ccccc2)c2ccc(C#N)cc2)nc1C(=O)NS(C)(=O)=O` [Compound 598, 2-(N-benzyl-4-cyano-anilino)-5-methyl-N-methylsulfonyl-oxazole-4-carboxamide], the figures for the EC50 in assay [1] and in assay [2] were 251 nM and 2000 nM, respectively.
On to `Cc1sc(N(Cc2ccccc2)c2ccc(C#N)cc2)nc1C(=O)NS(=O)(=O)CCc1ccccc1` [Compound 391, 2-(N-benzyl-4-cyano-anilino)-5-methyl-N-(2-phenylethylsulfonyl)thiazole-4-carboxamide], for which the EC50 was 79.4 nM in assay [1] and above 10000 nM in assay [2].
Take `Cc1oc(N(CCc2ccc(C#N)cc2)Cc2ccc(OC(F)F)cc2)nc1C(=O)NS(C)(=O)=O` [Compound 553, 2-[2-(4-cyanophenyl)ethyl-[[4-(difluoromethoxy)phenyl]methyl]amino]-5-methyl-N-methylsulfonyl-oxazole-4-carboxamide]: the EC50 was 31.6 nM in assay [1] and 316 nM in assay [2].
For `Cc1oc(N(CCc2ccc(C#N)cc2)Cc2ccc(F)cc2)nc1C(=O)NS(C)(=O)=O` [Compound 552, 2-[2-(4-cyanophenyl)ethyl-[(4-fluorophenyl)methyl]amino]-5-methyl-N-methylsulfonyl-oxazole-4-carboxamide] the same measures were 79.4 nM and 501 nM.
As to `Cc1sc(N(CCc2ccc(F)c(F)c2)Cc2ccccc2)nc1C(=O)NS(C)(=O)=O` [Compound 148, 2-[benzyl-[2-(3,4-difluorophenyl)ethyl]amino]-5-methyl-N-methylsulfonyl-thiazole-4-carboxamide], the EC50 in assay [1] is 25.1 nM; in assay [2], 100 nM.
For `Cc1sc(N(Cc2cccc(C(F)(F)F)c2)c2ccc(C#N)cc2)nc1C(=O)NS(C)(=O)=O` [Compound 24, 2-[4-cyano-N-[[3-(trifluoromethyl)phenyl]methyl]anilino]-5-methyl-N-methylsulfonyl-thiazole-4-carboxamide] the same measures were 20 nM and 200 nM.
On to `CS(=O)(=O)NC(=O)c1csc(N(Cc2ccccc2)c2ccc(C#N)cc2)n1` [Compound 597, 2-(N-benzyl-4-cyano-anilino)-N-methylsulfonyl-thiazole-4-carboxamide], for which the EC50 is 398 nM in assay [1] and 1000 nM in assay [2].
For `Cc1sc(N(Cc2ccccc2)c2ccc(C#N)cc2)nc1C(=O)NS(=O)(=O)CC(C)C` [Compound 371, 2-(N-benzyl-4-cyano-anilino)-N-isobutylsulfonyl-5-methyl-thiazole-4-carboxamide] the same measures were 200 nM and above 10000 nM.
On to `COCCCS(=O)(=O)NC(=O)c1nc(N(CCc2ccc(C#N)cc2)Cc2ccc(OC(F)(F)F)cc2)sc1C` [Compound 740, 2-[2-(4-cyanophenyl)ethyl-[[4-(trifluoromethoxy)phenyl]methyl]amino]-N-(3-methoxypropylsulfonyl)-5-methyl-thiazole-4-carboxamide], for which the EC50 in assay [1] was 25.1 nM; in assay [2], 1000 nM.
Consider `Cc1sc(N(Cc2ccccc2SC(F)(F)F)c2ccc(C#N)cc2)nc1C(=O)NS(C)(=O)=O` [Compound 56, 2-[4-cyano-N-[[2-(trifluoromethylsulfanyl)phenyl]methyl]anilino]-5-methyl-N-methylsulfonyl-thiazole-4-carboxamide], for which the EC50 in assay [1] is 63.1 nM; in assay [2], 6310 nM.
For `Cc1sc(N(Cc2ncccc2O)c2ccc(C#N)cc2)nc1C(=O)NS(C)(=O)=O` [Compound 492, 2-[4-cyano-N-[(3-hydroxyl-pyridyl)methyl]anilino]-5-methyl-N-methylsulfonyl-thiazole-4-carboxamide] the same measures were 794 nM and 1260 nM.
For `Cc1oc(N(Cc2ccc(Br)cc2)c2ccc(C#N)cc2)nc1C(=O)NS(C)(=O)=O` [Example 285, 2-[N-[(4-bromophenyl)methyl]-4-cyano-anilino]-5-methyl-N-methylsulfonyl-oxazole-4-carboxamide] the same measures were 50.1 nM and 200 nM.
For the molecule `Cc1sc(N(Cc2cnc(-c3ccc(F)cc3)s2)c2ccc(C#N)cc2)nc1C(=O)NS(C)(=O)=O` [Compound 494, 2-[4-cyano-N-[[2-(4-fluorophenyl)thiazol-5-yl]methyl]anilino]-5-methyl-N-methylsulfonyl-thiazole-4-carboxamide], the values for the EC50 in assay [1] and in assay [2] were 31.6 nM and 1000 nM, respectively.
For `Cc1sc(N(CCC2CCCCC2)Cc2ccc(Cl)cc2)nc1C(=O)NS(C)(=O)=O` [Compound 728, 2-[(4-chlorophenyl)methyl-(2-cyclohexylethyl)amino]-5-methyl-N-methylsulfonyl-thiazole-4-carboxamide] the same measures were 39.8 nM and 631 nM.
For `Cc1sc(N(Cc2ccccc2OC(F)F)c2ccc(C#N)cc2)nc1C(=O)NS(C)(=O)=O` [Compound 5, 2-[4-cyano-N-[[2-(difluoromethoxy)phenyl]methyl]anilino]-5-methyl-N-methylsulfonyl-thiazole-4-carboxamide] the same measures were 100 nM and 251 nM.
`COc1ccc(CN(c2ccc(C#N)cc2)c2nc(C(=O)NS(C)(=O)=O)c(C)s2)nn1` [Compound 516, 2-[4-cyano-N-[(6-methoxypyridazin-3-yl)methyl]anilino]-5-methyl-N-methylsulfonyl-thiazole-4-carboxamide]: the figures for the EC50 in assay [1] and in assay [2] were above 2000 nM and 6310 nM, respectively.
For `Cc1sc(N(Cc2cccs2)c2ccc(C#N)cc2)nc1C(=O)NS(C)(=O)=O` [Compound 77, 2-[4-cyano-N-(2-thienylmethyl)anilino]-5-methyl-N-methylsulfonyl-thiazole-4-carboxamide] the same measures were 50.1 nM and 631 nM.
For `Cc1oc(N(Cc2ccc(Cl)cc2)c2ccc(C#N)cc2)nc1C(=O)NS(=O)(=O)C1CC1` [Compound 628, 2-[N-[(4-chlorophenyl)methyl]-4-cyano-anilino]-N-cyclopropylsulfonyl-5-methyl-oxazole-4-carboxamide] the same measures were 200 nM and above 10000 nM.
With `CCc1oc(N(Cc2ccc(OC(F)F)cn2)c2ccc(C#N)cc2)nc1C(=O)NS(C)(=O)=O` [Compound 635, 2-[4-cyano-N-[[5-(difluoromethoxy)-2-pyridyl]methyl]anilino]-5-ethyl-N-methylsulfonyl-oxazole-4-carboxamide], the EC50 in assay [1] is 398 nM; in assay [2], above 10000 nM.
As for `Cc1oc(N(Cc2ccc3ncsc3c2)c2ccc(C#N)cc2)nc1C(=O)NS(C)(=O)=O` [Compound 616, 2-[N-(1,3-benzothiazol-6-ylmethyl)-4-cyano-anilino]-5-methyl-N-methylsulfonyl-oxazole-4-carboxamide], the EC50 was 251 nM in assay [1] and above 10000 nM in assay [2].
For `Cc1sc(N(Cc2cccc(OC(F)(F)F)c2)c2ccc(C#N)cc2)nc1C(=O)NS(C)(=O)=O` [Compound 343, 2-[4-cyano-N-[[3-(trifluoromethoxy)phenyl]methyl]anilino]-5-methyl-N-methylsulfonyl-thiazole-4-carboxamide], the EC50 is 31.6 nM in assay [1] and 100 nM in assay [2].
For `Cc1sc(N(Cc2ccccc2)c2ccc(C#N)cc2)nc1C(=O)NS(=O)(=O)Cc1ccncc1` [Compound 395, 2-(N-benzyl-4-cyano-anilino)-5-methyl-N-(4-pyridylmethylsulfonyl)thiazole-4-carboxamide] the same measures were 100 nM and 158 nM.
